Results: patent US20230286958A1, “PLASMA KALLIKREIN INHIBITORS” (Merck Sharp & Dohme LLC, priority 2020, published 2023)

Key:
[1] = molecular target: Human plasma kallikrein (Homo sapiens (Human), UniProt P03952); test: Kallikrein Assay (fluorogenic substrate Acetyl-K-P-R-AFC); type: biochemical; details: Plasma Kallikrein (PKal)
Method in brief: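 Ki is derived from IC50 with the Cheng-Prusoff equation, and IC50 from the inflection point of a four-parameter logistic curve. The rate of AFC release is read with 0.5 nM purified enzyme and […] substrate at room temperature or 37 °C.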

[2] = molecular target: human Factor XIa (Homo sapiens (Human), UniProt P03951); test: Factor XIa Assay (fluorogenic substrate GPR-AFC); type: biochemical; details: Factor XIa (FXIa)
Chain of human Factor XIa (P03951 388-625 limits assumed): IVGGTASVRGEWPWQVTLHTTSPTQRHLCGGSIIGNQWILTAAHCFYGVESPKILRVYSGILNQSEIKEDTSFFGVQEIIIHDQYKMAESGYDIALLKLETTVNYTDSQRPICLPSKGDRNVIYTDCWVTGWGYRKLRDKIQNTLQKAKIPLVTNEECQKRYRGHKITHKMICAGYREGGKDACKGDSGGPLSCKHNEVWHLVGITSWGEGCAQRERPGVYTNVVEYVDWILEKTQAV
Chain of human Factor XIa (P03951 19-387 partner limits assumed): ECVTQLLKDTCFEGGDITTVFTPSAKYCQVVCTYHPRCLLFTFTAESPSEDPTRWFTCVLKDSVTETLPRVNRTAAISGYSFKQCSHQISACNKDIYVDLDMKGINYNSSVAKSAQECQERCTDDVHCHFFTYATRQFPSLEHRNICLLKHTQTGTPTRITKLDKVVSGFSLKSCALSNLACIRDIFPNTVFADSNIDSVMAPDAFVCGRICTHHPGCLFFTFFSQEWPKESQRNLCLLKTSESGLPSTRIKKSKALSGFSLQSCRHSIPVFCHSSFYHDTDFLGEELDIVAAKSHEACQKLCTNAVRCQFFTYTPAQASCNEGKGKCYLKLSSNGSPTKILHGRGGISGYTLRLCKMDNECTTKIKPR

Chain of Human plasma kallikrein (P03952 391-638): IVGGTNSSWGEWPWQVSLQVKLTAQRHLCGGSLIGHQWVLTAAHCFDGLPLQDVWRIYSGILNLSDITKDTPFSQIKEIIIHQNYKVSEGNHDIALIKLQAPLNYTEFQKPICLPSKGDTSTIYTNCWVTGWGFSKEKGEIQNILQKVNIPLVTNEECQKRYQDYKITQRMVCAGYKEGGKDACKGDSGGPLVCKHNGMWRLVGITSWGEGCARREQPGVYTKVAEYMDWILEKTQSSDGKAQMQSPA
Chain of Human plasma kallikrein (P03952 20-390 partner): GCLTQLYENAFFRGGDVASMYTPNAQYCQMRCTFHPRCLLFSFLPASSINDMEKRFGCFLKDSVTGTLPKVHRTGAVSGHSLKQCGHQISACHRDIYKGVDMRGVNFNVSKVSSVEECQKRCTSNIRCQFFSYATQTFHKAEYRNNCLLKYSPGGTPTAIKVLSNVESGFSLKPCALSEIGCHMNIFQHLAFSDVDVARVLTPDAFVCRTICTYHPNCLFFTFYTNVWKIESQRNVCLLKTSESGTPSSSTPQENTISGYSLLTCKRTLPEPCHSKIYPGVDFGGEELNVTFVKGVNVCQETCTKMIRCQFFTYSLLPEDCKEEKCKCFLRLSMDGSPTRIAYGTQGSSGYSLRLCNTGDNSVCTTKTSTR

Row | IC50 [1] | IC50 [2] | SMILES
1 | 0.4 nM | 328 nM | Cc1cc([C@H](C)n2cc(NC(=O)c3nc(-c4c(OC(F)F)ccc(Cl)c4F)cnc3C)cn2)nnc1N1C[C@H]2C[C@H]2C1=O [Example 39, 6-(3-Chloro-6-(difluoromethoxy)-2-fluorophenyl)-3-methyl-N-(1-((S)-1-(5-methyl-6-((1R,5S)-2-oxo-3-azabigyclo[3.1.0]hexan-3-yl)pyridazin-3-yl)ethyl)-1H-pyrazol-4-yl)pyrazine-2-carboxamide]
2 | 1.8 nM | 255 nM | Cc1cc([C@@H](C)n2cc(NC(=O)c3nc(-c4c(OC(F)F)ccc(Cl)c4F)cnc3C)cn2)nnc1N1C[C@H]2C[C@H]2C1=O [Example 40, 6-(3-Chloro-6-(difluoromethoxy)-2-fluorophenyl)-3-methyl-N-(1-((R)-1-(5-methyl-6-((1R,5S)-2-oxo-3-azabicyclo[3.1.0]hexan-3-yl)pyridazin-3-yl)ethyl)-1H-pyrazol-4-yl)pyrazine-2-carboxamide]
3 | 0.2 nM | 53 nM | Cc1cc(Cn2cc(NC(=O)c3nc(-c4c(C(F)F)ccc(Cl)c4F)cnc3C)cn2)cnc1N1C[C@H]2C[C@H]2C1=O [Example 41, 6-(3-Chloro-6-(difluoromethyl)-2-fluorophenyl)-3-methyl-N-(1-((5-methyl-6-((1R,5S)-2-oxo-3-azabicyclo[3.1.0]hexan-3-yl)pyridin-3-yl)methyl)-1H-pyrazol-4-yl)pyrazine-2-carboxamide]
4 | 6.1 nM | 4670 nM | Cc1c(C(C)n2cc(NC(=O)c3cncc(-c4c(C(F)F)ccc(Cl)c4F)n3)cn2)cnc(N2C[C@H]3C[C@H]3C2=O)c1F (stereo partly drawn) [Example 45, 6-(3-Chloro-6-(difluoromethyl)-2-fluorophenyl)-N (1-(1-(5-fluoro-4-methyl-6-((1R,5S)-2-oxo-3-azabicyclo[3.1.0]hexan-3-yl)pyridin-3-yl)ethyl)-1H-pyrazol-4-yl)pyrazine-2-carboxamide]
5 | 0.9 nM | 755 nM | Cc1ncc(-c2c(C(F)F)ccc(Cl)c2F)nc1C(=O)Nc1cnn(Cc2cnc(N3C[C@H]4C[C@H]4C3=O)c(C)n2)c1 [Example 46, 6-(3-Chloro-6-(difluoromethyl)-2-fluorophenyl)-3-methyl-N-(1-((6-methyl-5-((1R,5S)-2-oxo-3-azabicyclo[3.1.0]hexan-3-yl)pyrazin-2-yl)methyl)-1H-pyrazol-4-yl)pyrazine-2-carboxamide]
6 | 2.5 nM | 1150 nM | Cc1nc(Cn2cc(NC(=O)c3cncc(-c4c(C(F)F)ccc(Cl)c4F)n3)cn2)cnc1N1C[C@H]2C[C@H]2C1=O [Example 47, 6-(3-Chloro-6-(difluoromethyl)-2-fluorophenyl)-N-(1-((6-methyl-5-((1R,5S)-2-oxo-3-azabicyclo[3.1.0]hexan-3-yl)pyrazin-2-yl)methyl)-1H-pyrazol-4-yl)pyrazine-2-carboxamide]
7 | 0.6 nM | > 10000 nM | Cc1c(Cn2cc(NC(=O)c3cncc(-c4c(C(F)F)ccc(Cl)c4F)n3)cn2)ccc(N2C[C@H]3C[C@H]3C2=O)c1C [Example 48]
8 | 3.5 nM | 423 nM | COc1cc(Cn2cc(NC(=O)c3cncc(-c4c(C(F)F)ccc(Cl)c4F)n3)cn2)cnc1N1C[C@H]2C[C@H]2C1=O [Example 49, 6-(3-Chloro-6-(difluoromethyl)-2-fluorophenyl)-N-(1-((5-methoxy-6-((1R,5S)-2-oxo-3-azabicyclo[3.1.0]hexan-3-yl)pyridin-3-yl)methyl)-1H-pyrazol-4-yl)pyrazine-2-carboxamide]
9 | 5.5 nM | 2120 nM | O=C(Nc1cnn(Cc2cnc(N3C[C@H]4C[C@H]4C3=O)c(F)c2)c1)c1cncc(-c2c(C(F)F)ccc(Cl)c2F)n1 [Example 50, 6-(3-Chloro-6-(difluoromethyl)-2-fluorophenyl)-N-(1-((5-fluoro-6-((1R,5S)-2-oxo-3-azabicyclo[3.1.0]hexan-3-yl)pyridin-3-yl)methyl)-1H-pyrazol-4-yl)pyrazine-2-carboxamide]
10 | 2.4 nM | 1280 nM | Cc1nc(N2C[C@H]3C[C@H]3C2=O)ncc1C1(n2cc(NC(=O)c3nc(-c4c(C(F)F)ccc(Cl)c4F)cnc3C)cn2)CC1 [Example 54, 6-(3-Chloro-6-(difluoromethyl)-2-fluorophenyl)-3-methyl-N(1-(1-(4-methyl-2-((1R,5S)-2-oxo-3-azabicyclo[3.1.0]hexan-3-yl)pyrimidin-5-yl)cyclopropyl)-1H-pyrazol-4-yl)pyrazine-2-carboxamide]
11 | 4.9 nM | 1890 nM | Cc1cc(N2C[C@H]3C[C@H]3C2=O)ncc1Cn1cc(NC(=O)c2cncc(-c3c(C(F)F)ccc(Cl)c3F)n2)cn1 [Example 57, 6-(3-Chloro-6-(difluoromethyl)-2-fluorophenyl)-N-(1-((4-methyl-6-((1R,5S)-2-oxo-3-azabicyclo[3.1.0]hexan-3-yl)pyridin-3-yl)methyl)-1H-pyrazol-4-yl)pyrazine-2-carboxamide]
12 | 1.7 nM | > 10000 nM | Cc1nc(Cn2cc(NC(=O)c3nc(-c4c(C(F)F)ccc(Cl)c4F)cnc3C)cn2)ccc1N1C[C@H]2C[C@H]2C1=O [Example 63, 6-(3-Chloro-6-(difluoromethyl)-2-fluorophenyl)-3-methyl-N-(1-((6-methyl-5-((1R,SS)-2-oxo-3-azabicyclo[3.1.0]hexan-3-yl)pyridin-2-yl)methyl)-1H-pyrazol-4-yl)pyrazine-2-carboxamide]
13 | 3.4 nM | > 10000 nM | Cc1nc(Cn2cc(NC(=O)c3cncc(-c4c(C(F)F)ccc(Cl)c4F)n3)cn2)ccc1N1C[C@H]2C[C@H]2C1=O [Example 64, 6-(3-Chloro-6-(difluoromethyl)-2-fluorophenyl)-N-(1-((6-methyl-5-((1R,5S)-2-oxo-3-azabicyclo[3.1.0]hexan-3-yl)pyridin-2-yl)methyl)-1H-pyrazol-4-yl)pyrazine-2-carboxamide]
14 | 35.7 nM | > 10000 nM | Cc1cc(Cn2cc(NC(=O)c3cncc(-c4c(C(F)F)ccc(Cl)c4F)n3)cn2)ncc1N1C[C@H]2C[C@H]2C1=O [Example 65, 6-(3-Chloro-6-(difluoromethyl)-2-fluorophenyl)-N-(1-((4-methyl-5-((1R,5S)-2-oxo-3-azabicyclo[3.1.0]hexan-3-yl)pyridin-2-yl)methyl)-1H-pyrazol-4-yl)pyrazine-2-carboxamide]
15 | 1.8 nM | 94 nM | Cc1nc(N2C[C@H]3C[C@H]3C2=O)ncc1Cn1cc(NC(=O)c2nc(-c3c(C(F)F)ccc(Cl)c3F)cc(=O)n2C)cn1 [Example 81, 4-(3-Chloro-6-(difluoromethyl)-2-fluorophenyl)-1-methyl-N-(1-((4-methyl-2-((1R,5S)-2-oxo-3-azabicyclo[3.1.0]hexan-3-yl)pyrimidin-5-yl)methyl)-1H-pyrazol-4-yl)-6-oxo-1,6-dihydropyrimidine-2-carboxamide]
16 | 1.8 nM | 935 nM | Cc1ncc(-c2c(C(F)F)ccc(Cl)c2F)nc1C(=O)Nc1cnn(Cc2cnc(N3C[C@H]4C[C@H]4C3=O)c(F)c2)c1 [Example 82, 6-(3-Chloro-6-(difluoromethyl)-2-fluorophenyl)-N-(1-((5-fluoro-6-((1R,5S)-2-oxo-3-azabicyclo[3.1.0]hexan-3-yl)pyridin-3-yl)methyl)-1H-pyrazol-4-yl)-3-methylpyrazine-2-carboxamide]
17 | 3.4 nM | 259 nM | Cc1cc(Cn2cc(NC(=O)c3nc(-c4c(C(F)F)ccc(Cl)c4F)cnc3C)cn2)nnc1N1C[C@H]2C[C@H]2C1=O [Example 83, 6-(3-Chloro-6-(difluoromethyl)-2-fluorophenyl)-3-methyl-N-(1-((5-methyl-6-((1R,5S)-2-oxo-3-azabicyclo[3.1.0]hexan-3-yl)pyridazin-3-yl)methyl)-1H-pyrazol-4-yl)pyrazine-2-carboxamide]
18 | 20.7 nM | 5710 nM | Cc1cc(N2C[C@H]3C[C@H]3C2=O)nnc1Cn1cc(NC(=O)c2nc(-c3c(C(F)F)ccc(Cl)c3F)cnc2C)cn1 [Example 84, 6-(3-Chloro-6-(difluoromethyl)-2-fluorophenyl)-3-methyl-N-(1-((4-methyl-6-((1R,5S)-2-oxo-3-azabicyclo[3.1.0]hexan-3-yl)pyridazin-3-yl)methyl)-1H-pyrazol-4-yl)pyrazine-2-carboxamide]
19 | 10.1 nM | 2070 nM | Cc1nc(N2C[C@H]3C[C@H]3C2=O)ncc1Cn1cc(NC(=O)c2nc(-c3c(S(C)(=O)=O)ccc(Cl)c3F)cnc2C)cn1 [Example 85, 6-(3 -Chloro-2-fluoro-6-(methylsulfonyl)phenyl)-3-methyl-N-(1-((4-methyl-2-((1R,5S)-2-oxo-3-azabicyclo[3.1.0]hexan-3-yl)pyrimidin-5-yl)methyl)-1H-pyrazol-4-yl)pyrazine-2-carboxamide]
20 | 0.7 nM | 127 nM | Cc1ncc(-c2c(C(F)F)ccc(Cl)c2F)nc1C(=O)Nc1cnn(Cc2nnc(N3C[C@H]4C[C@H]4C3=O)c(C)c2C)c1 [Example 88, 6-(3-Chloro-6-(difluoromethyl)-2-fluorophenyl)-N-(1-((4,5-dimethyl-6-((1R,5S)-2-oxo-3-azabicyclo[3.1.0]hexan-3-yl)pyridazin-3-yl)methyl)-1H-pyrazol-4-yl)-3-methylpyrazine-2-carboxamide]
21 | 1.3 nM | 2580 nM | Cc1ncc(-c2c(C(F)F)ccc(Cl)c2F)nc1C(=O)Nc1cnn(C(C)c2cnc(N3C[C@H]4C[C@H]4C3=O)c(Cl)c2)c1 (stereo partly drawn) [Example 91, N-(1-((S)-1-(5-chloro-6-((1R,5S)-2-oxo-3-azabicyclo[3.1.0]hexan-3-yl)pyridin-3-yl)ethyl)-1H-pyrazol-4-yl)-6-(3-chloro-6-(difluoromethyl)-2-fluorophenyl)-3-methylpyrazine-2-carboxamide]
22 | 1.3 nM | 577 nM | Cc1ncc(-c2c(C(F)F)ccc(Cl)c2F)nc1C(=O)Nc1cnn(C(C)c2cnc(N3C[C@H]4C[C@H]4C3=O)c(Cl)c2)c1 (stereo partly drawn) [Example 92, N-(1-((S)-1-(5-chloro-6-((1R,5S)-2-oxo-3-azabicyclo[3.1.0]hexan-3-yl)pyridin-3-yl)ethyl)-1H-pyrazol-4-yl)-6-(3-chloro-6-(difluoromethyl)-2-fluorophenyl)-3-methylpyrazine-2-carboxamide]
